Like-named read-outs stand apart in the source and are kept apart here.
Tests used:
SIRT7 [1] = target: T1, SIRT7 (Homo sapiens, UniProt Q9NRC8); test: Fluor de Lys (FDL) SIRT7 deacetylase assay; type: biochemical
T1 construct: His-tagged full length SIRT7 protein expression from BL21 bacterial cells; His; made in house; host or cells: E. coli BL21
T1 sequence (Q9NRC8 1-400): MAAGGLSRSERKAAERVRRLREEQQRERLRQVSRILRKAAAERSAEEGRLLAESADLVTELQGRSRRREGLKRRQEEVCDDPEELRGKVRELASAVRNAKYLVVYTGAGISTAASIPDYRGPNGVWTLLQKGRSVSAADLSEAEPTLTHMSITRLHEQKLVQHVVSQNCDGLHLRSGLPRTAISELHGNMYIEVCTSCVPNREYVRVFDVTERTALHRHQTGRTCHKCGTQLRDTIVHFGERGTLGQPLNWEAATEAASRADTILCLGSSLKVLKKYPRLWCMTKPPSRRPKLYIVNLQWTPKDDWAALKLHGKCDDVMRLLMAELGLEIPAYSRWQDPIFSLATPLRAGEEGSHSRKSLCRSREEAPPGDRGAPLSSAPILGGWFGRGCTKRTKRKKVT
From the text: To assess SIRT7 deacetylase activity using Fluor de Lys (FDL) assays, the peptide […]∗QLAGGK was synthesized and characterized as a substrate using fluorophore 7-methoxycoumarin-4-acetic acid (∗, MCA) (Figures 1A, S1A, and S1B). In the presence of both SIRT7 and NAD^+, a luminescence response was detected in the linear range (y = 31.88x + 2396, R^2 = 0.9742) (Figure 1B). We screened our preserved library of 242 natural products to find potential SIRT7 inhibitors.
For in vitro analysis of SIRT7 deacetylation, the reaction system contained 10 μg His-SIRT7, 0.5 mM NAD^+, 10 μM […](MCA)QLAGGK (synthesized by QYAOBIO; details in the supplementary files), 50 μM potential compound or 3 mM NAM, and assay buffer (10 mM Tris-HCl pH 8.0, 4 mM MgCl2, 0.2 mM DTT and 10% Glycerol). The deacetylation reactions were incubated at 37°C for 90 min. The fluorescence intensity was measured with a microplate reader (Synergy H4 Hybrid Reader, Biotek) at an excitation wavelength of 260 nm and detected at an emission spectrum of 300–600 nm. The IC50 values were calculated at 450 nm emission by GraphPad Prism 8.

SIRT7 [2] = target: T1, SIRT7; test: Bio-layer interferometry (BLI) binding assay; conditions: 0-40 μM, PBST pH 7.4
Procedure: The binding affinity of SIRT1/2/6/7 with YZL-51N was determined using Super Streptavidin (SSA) biosensors in an Octet Red 96 instrument (ForteBio Inc., Menlo Park, CA, United States). Briefly, the biotinylated SIRT1/2/6/7 proteins were immobilized onto the surface of SSA biosensors. Increasing concentrations of YZL-51N were allowed to flow through the chips at room temperature in PBST buffer (pH 7.4). Assays were performed in black 96-well flat bottom plates on a shaker at 1000 r/min. The association and dissociation of YZL-51N with SIRT1/2/6/7 were measured for 300 s. Kinetic parameters and affinities were calculated from a non-linear global fit of the data between YZL-51N and SIRT1/2/6/7 using Octet Data Analysis software version 7.0 (Fortebio).

SIRT7 [3] = target: T1, SIRT7; test: Surface plasmon resonance (SPR) binding assay
Procedure: All SPR measurements were performed on Biacore T200 instrument (GE Healthcare) with running buffer (PBS+5% DMSO) at room temperature. The bacterially purified His-SIRT7 was covalently immobilized onto Series S Sensor Chip CM5 by a standard amino-coupling procedure in 10 mM sodium acetate (pH 5.5). Two-fold serial dilutions of YZL-51N or NAD^+ in 5% DMSO passed through the sensor chip at 30 μL/min for 120 s, followed by 240 s of dissociation flow. The KD value was calculated based on the concentration dependence of the observed steady-state response using Biacore T200 Evaluation software Version 1.0 (GE Healthcare).

HCT116 = test: CCK-8 cell proliferation assay; type: cell-based; conditions: Homo sapiens, HCT-116; HCT116, 48 h
Procedure: (§1) The plate was added with 10 μL CCK-8 solution to each well and incubated for 2 h at 37°C. The absorbance was measured at 450 nm using a microtiter plate reader (BioTek).

HT29 = test: CCK-8 cell proliferation assay; type: cell-based; conditions: Homo sapiens, HT-29; HT29, 48 h
Procedure: as §1

SW620 = test: CCK-8 cell proliferation assay; type: cell-based; conditions: Homo sapiens, SW-620; SW620, 48 h
Procedure: as §1

HCT116 xenograft = HCT116 xenograft model; type: in vivo, BALB/c nude mice
Procedure: For the xenograft models, HCT116 cells (5 x 10^6 in 100 μL of PBS) were inoculated subcutaneously into the dorsal flank of the 4-week-old male BALB/c nude mice. The mice were randomly divided into control, drug treatment, IR treatment and combination treatment groups. Control group was injected with PBS. Drug treatment group was treated with 15 mg/kg YZL-51N every 3 d. In IR treatment group, the tumor site was irradiated with 3 Gy every 3 d. The combination group was treated with both 15 mg/kg YZL-51N and 3 Gy IR. The tumor size was estimated from the measurement of the longest diameter across the tumor and the corresponding perpendicular diameter. Tumor volumes were assessed on indicated days by a caliper and calculated using the formula: volume = (length x width[2])/2.

HCT116 cells [4] = test: Western blot of histone acetylation in treated cells; type: cell-based, human; conditions: HCT116, 0-40 μM, 8 h
Procedure: After drug treatment, the cells were lysed in RIPA lysis buffer. […] The membranes were then blocked with 5% skimmed milk in TBST and incubated overnight at 4°C with the primary antibodies followed by incubation with HRP-conjugated secondary antibodies. The protein bands were then detected using the ECL substrates and visualized with Tanon 5200SF Imaging System.

HCT116 cells [5] = system: HCT116 cells
Procedure: Cells were seeded into 96 well plates (4,000 cells/well). […] The cells were then washed and re-cultured in fresh medium for 48 h. […] Formazan were generated by the addition of 100 μL DMSO and shaking for 30 min. The absorbance of samples was measured at 570 nm using a microtiter plate reader (BioTek).

inhibition at 50 µM (SIRT7 [1]; 50 μM compound, 37°C, 90 min): 71.1% | IC50 (SIRT7 [1]; 0.5 mM NAD+, 10 μM peptide, read-out: FDL assay SIRT7 inhibition IC50): 12.7 µM | Kd (SIRT7 [2]): 3.3 µM | disassociation rate (koff) (SIRT7 [3]): 0.0006315 s⁻¹ | Kd (SIRT7 [3]; immobilized His-SIRT7): 1.02 µM | kon (SIRT7 [3]; read-out: association rate (kon)): 618 M⁻¹ s⁻¹ | IC50 (HCT116): 37.5 µM | IC50 (HT29): 47.5 µM | IC50 (SW620): 28.6 µM
SMILES: COC(=O)/C(=C\C(=O)c1ccc(O)c(O)c1)c1ccc(O)c(O)c1 [YZL-51N]
Tumor therapy, co-treatment with IR (HCT116 xenograft; 15 mg/kg YZL-51N and 3 Gy IR every 3 days): more effective | Tumor volume (HCT116 xenograft; 15 mg/kg every 3 days, alone): reduction on the tumor volume | Level of H3K18ac (HCT116 cells [4]): increased | Cell proliferation (%, Mean ± SD) (HCT116 cells [5]; single agent 5 μM): 94.8 ± 5.0% | Cell proliferation (%, Mean ± SD) (HCT116 cells [5]; single agent 10 μM): 86.9 ± 5.7% | Cell proliferation (%, Mean ± SD) (HCT116 cells [5]; single agent 20 μM): 76.4 ± 6.0% | Cell proliferation (%, Mean ± SD) (HCT116 cells [5]; single agent 40 μM): 42.8 ± 4.8% | Cell proliferation (%, Mean ± SD) (HCT116 cells [5]; single agent 80 μM): 29.9 ± 5.4% | Cell proliferation (%, Mean ± SD) (HCT116 cells [5]; single agent 160 μM): 17.7 ± 5.3%

— publication PMC11214487, “YZL-51N functions as a selective inhibitor of SIRT7 by NAD^+ competition to impede DNA damage repair” (iScience, 2024)
